Values joined by “and” are separate entries in the source; they are usually repeats but may differ in a detail not shown here. Equal entries are not always repeated. Where two headings read alike, the source gives them in different places.
Legend:
CDK1 = target: T1, CDK1 (Homo sapiens, UniProt P06493); assay: CDK1 in vitro kinase activity, single concentration 1 μM; type: biochemical; conditions: single concentration 1 μM
T1 construct: purchased BPS Bioscience 79597
Method: (§1) Kinase activity was assessed using the kinase assay kits from BPS Bioscience for CDK1, CDK9 and CDK12 with Kinase Glo MAX in duplicates. Compounds were tested at a single concentration of 1 μM for CDK1 and CDK9 activity, and in a dilution ranging from 0.64 nM to 50 μM for CDK12 activity. Chemiluminescence was read using the Neo Synergy BioTek plate reader.

[1] = system: OCI-AML5 cells expressing shRNAs targeting CDK1, 2, 4, 7, 9, cyclin K; assay: Dose response in OCI-AML5 expressing shRNAs targeting CDK1, 2, 4, 7, 9, cyclin K or control; type: cell-based, H. sapiens
cyclin KeGFP = assay: Cyclin KeGFP reporter system (eGFP/mCherry MFI by flow cytometry);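 as to % degradation cyclin K-eGFP: 10 μM compound for 3 h relative to DMSO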; type: cell-based, H. sapiens
How it was run: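 Degradation read as eGFP-to-mCherry MFI ratio relative to DMSO controls, from flow cytometry of the selected G7 clone of OCI-AML5 cells transduced with the cyclin KeGFP reporter.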

[2] = system: OCI-AML5 cells expressing shRNA targeting CUL4A or CUL4B; assay: Dose response in OCI-AML5 expressing shRNAs targeting CUL4A, CUL4B or control; type: cell-based, H. sapiens
primary AML specimens = assay: Dose-response assays in primary AML specimens (6 days, CellTiterGlo); type: cell-based, human; conditions: Homo sapiens, 144 h, 6 days, read-out: IC50
Method: Freshly thawed primary AML specimens were used for chemical screens. Cryopreserved cells were thawed at 37 °C in IMDM containing 20% FBS and DNase I (100 μg/mL). Cells were resuspended in IMDM supplemented with 15% BIT (BSA, insulin, transferrin; StemCell Technologies), 100 ng/mL SCF, 50 ng/mL FLT3L, 20 ng/mL IL3, 20 ng/mL G-CSF, 10^−4 mol/L b-mercaptoethanol, gentamicin (50 μg/mL), ciprofloxacin (10 μg/mL), SR1 (500 nmol/L) and UM729 (500 nmol/L). Cells were plated in 384-well white plates, 5000 cells per well in 50 μL. Compounds were dissolved in DMSO, diluted in media immediately before use and added to seeded cells at the unique concentration of 1 μM. Control wells received DMSO (0.1%) only. Cell viability was evaluated after 6 days in culture using the CellTiterGlo assay according to the manufacturer’s instruction. Percentage of inhibition for dose response curves was calculated as 100 – (100 × (mean luminescence [compound]/mean luminescence [DMSO])). Dose response curves were generated using nonlinear regression in GraphPad Prism version.
Dose-response assays in primary AML specimens were performed as in chemical screen (see above) with the exception that compounds were tested in serial dilution (8 dilutions, 1:4, 10 μM down to 0.5 nM). Dose-response assays in OCI-AML5 cell line were conducted similarly with the following modifications: 300 cells per well were seeded in 50 μL of cell line media and cell viability was evaluated after 4 days in culture.

OCI-AML5 cells = assay: Dose-response proliferative assay in OCI-AML5 (4 days, CellTiterGlo); type: cell-based, H. sapiens; conditions: Homo sapiens
How it was run: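 Viability assessed after 4 days of compound exposure at 37 °C, 5% CO2. Compounds tested as 8 dilutions (1:4, 10 μM to 0.5 nM) on 300 OCI-AML5 cells/well grown in αMEM with 10% heat-inactivated FBS and 10 ng/mL GM-CSF.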

CDK9/CyclinT = target: T2, CDK9/CyclinT (Homo sapiens, UniProt P50750); assay: CDK9/CyclinT in vitro kinase activity, single concentration 1 μM; type: biochemical; conditions: single concentration 1 μM
T2 construct: purchased BPS Bioscience 79628
Method: as §1

T1 sequence (P06493 whole entry): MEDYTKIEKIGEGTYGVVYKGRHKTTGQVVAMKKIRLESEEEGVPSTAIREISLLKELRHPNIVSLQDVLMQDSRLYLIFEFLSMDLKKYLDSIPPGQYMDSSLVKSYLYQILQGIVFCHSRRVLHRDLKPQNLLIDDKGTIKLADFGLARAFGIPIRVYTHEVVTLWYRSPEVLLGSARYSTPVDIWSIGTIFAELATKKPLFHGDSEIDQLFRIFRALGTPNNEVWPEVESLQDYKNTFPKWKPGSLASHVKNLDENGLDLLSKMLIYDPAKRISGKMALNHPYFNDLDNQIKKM
T1 sequence (P14635 whole entry partner): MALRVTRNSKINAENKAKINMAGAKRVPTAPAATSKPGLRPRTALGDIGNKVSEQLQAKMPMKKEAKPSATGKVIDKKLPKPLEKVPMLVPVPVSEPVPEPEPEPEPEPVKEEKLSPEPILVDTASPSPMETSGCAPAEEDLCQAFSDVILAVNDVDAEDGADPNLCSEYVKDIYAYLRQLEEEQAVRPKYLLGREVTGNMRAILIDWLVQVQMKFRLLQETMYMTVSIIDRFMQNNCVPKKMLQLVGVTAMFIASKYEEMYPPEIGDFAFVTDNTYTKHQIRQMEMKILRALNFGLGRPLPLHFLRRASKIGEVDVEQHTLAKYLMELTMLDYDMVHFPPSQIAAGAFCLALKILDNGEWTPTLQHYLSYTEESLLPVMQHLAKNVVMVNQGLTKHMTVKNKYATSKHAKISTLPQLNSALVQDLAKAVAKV
T2 sequence (P50750 whole entry): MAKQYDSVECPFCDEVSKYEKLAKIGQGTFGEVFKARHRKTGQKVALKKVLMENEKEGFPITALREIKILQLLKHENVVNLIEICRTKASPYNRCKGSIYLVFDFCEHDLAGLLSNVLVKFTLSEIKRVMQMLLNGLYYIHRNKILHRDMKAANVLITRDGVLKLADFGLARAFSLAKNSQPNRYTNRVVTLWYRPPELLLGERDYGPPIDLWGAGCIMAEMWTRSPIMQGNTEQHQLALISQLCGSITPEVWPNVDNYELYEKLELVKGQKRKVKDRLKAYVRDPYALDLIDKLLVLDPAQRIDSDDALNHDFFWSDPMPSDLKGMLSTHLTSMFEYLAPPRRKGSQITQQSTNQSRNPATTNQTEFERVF
T2 sequence (O60563 whole entry partner): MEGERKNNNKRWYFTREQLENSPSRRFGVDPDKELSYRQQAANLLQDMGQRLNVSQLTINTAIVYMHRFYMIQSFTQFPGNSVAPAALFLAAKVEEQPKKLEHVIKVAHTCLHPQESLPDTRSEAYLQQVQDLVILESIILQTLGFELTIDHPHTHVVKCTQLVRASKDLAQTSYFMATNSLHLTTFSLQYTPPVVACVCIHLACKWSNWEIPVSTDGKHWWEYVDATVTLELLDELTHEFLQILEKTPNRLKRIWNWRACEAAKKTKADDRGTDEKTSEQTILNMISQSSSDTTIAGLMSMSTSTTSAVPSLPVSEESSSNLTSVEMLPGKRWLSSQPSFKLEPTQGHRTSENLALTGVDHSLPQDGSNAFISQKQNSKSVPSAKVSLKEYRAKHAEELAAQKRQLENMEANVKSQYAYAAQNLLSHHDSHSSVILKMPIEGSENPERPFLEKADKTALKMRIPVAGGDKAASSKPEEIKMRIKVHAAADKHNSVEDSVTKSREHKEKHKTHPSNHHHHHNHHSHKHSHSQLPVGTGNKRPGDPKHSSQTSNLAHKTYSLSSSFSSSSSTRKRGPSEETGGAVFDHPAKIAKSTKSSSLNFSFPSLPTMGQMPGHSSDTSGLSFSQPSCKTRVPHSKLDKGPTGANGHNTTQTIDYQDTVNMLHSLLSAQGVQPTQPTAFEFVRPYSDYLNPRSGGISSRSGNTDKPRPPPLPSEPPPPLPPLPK

**Q.** With `CC(C)(C)c1cnc(CSc2cnc(NC(=O)C3CCNCC3)s2)o1` [SNS-032, N-[5-[[[5-(1,1-dimethylethyl)-2-oxazolyl]methyl]thio]-2-thiazolyl]-4-piperidinecarboxamide] as the molecule, how does the inhibition at 1 µM (CDK1) read?
**A.** 77%

**Q.** What about the IC50 ([1]; Homo sapiens, OCI-AML-5, 96 h, OCI-AML5, 4 days, read-out: IC50, sh CDK1) of the same molecule?
**A.** 0.0233 µM

**Q.** What about the IC50 ([1]; Homo sapiens, OCI-AML-5, 96 h, OCI-AML5, 4 days, read-out: IC50, sh ctrl) of the same molecule?
**A.** 0.0374 µM

**Q.** And the IC50 ([1]; Homo sapiens, OCI-AML-5, 96 h, read-out: IC50, sh CDK7)?
**A.** 0.0245 µM

**Q.** And the IC50 ([1]; OCI-AML5, 4 days, read-out: IC50, sh CDK1)?
**A.** 0.0466 µM and 0.042 µM

**Q.** And the IC50 ([1]; OCI-AML5, 4 days, read-out: IC50, sh ctrl)?
**A.** 0.0474 µM and 0.05 µM

**Q.** And the Class ([1]; class from shRNA IC50 profile and cyclin K-eGFP degradation)?
**A.** 2

**Q.** What about the IC50 ([1]; read-out: IC50, sh CDK7) of the same molecule?
**A.** 0.041 µM

**Q.** And the “MFI of cyclin KeGFP over mCherry” value (cyclin KeGFP; OCI-AML5 G7 clone, 3 h, 10 μM, normalized to DMSO (=100))?
**A.** 111.9 and 100.6 and 100.2 and 98.8 and 97.9

**Q.** And the “% degradation cyclin K-eGFP” value (cyclin KeGFP; cyclin K-eGFP reporter)?
**A.** 0%

**Q.** What about the “potency upon CUL4A or CUL4B downregulation (for SNS-032, THZ531 also DDB1 depletion)” value ([2]; OCI-AML5, 4 days) of the same molecule?
**A.** remained unaffected

**Q.** What about the “Ratio shCUL4A/shCTRL” value ([2]; ratio of IC50 in shCUL4A vs shCTRL OCI-AML5 cells) of the same molecule?
**A.** 1.01

**Q.** What about the IC50 (primary AML specimens; primary AML specimen 03H109) of the same molecule?
**A.** 0.0973 µM

**Q.** And the IC50 (primary AML specimens; primary AML specimen 04H055)?
**A.** 0.0857 µM

**Q.** What about the IC50 (primary AML specimens; primary AML specimen 04H096) of the same molecule?
**A.** 0.118 µM

**Q.** And the IC50 (primary AML specimens; primary AML specimen 04H138)?
**A.** 0.101 µM

**Q.** And the IC50 (primary AML specimens; primary AML specimen 05H113)?
**A.** 0.153 µM

**Q.** And the IC50 (primary AML specimens; primary AML specimen 05H149)?
**A.** 0.547 µM

**Q.** And the IC50 (primary AML specimens; primary AML specimen 05H193)?
**A.** 0.164 µM

**Q.** And the IC50 (primary AML specimens; primary AML specimen 06H088)?
**A.** 0.217 µM

**Q.** What about the IC50 (primary AML specimens; primary AML specimen 06H117) of the same molecule?
**A.** 0.134 µM

**Q.** What about the IC50 (primary AML specimens; primary AML specimen 06H151) of the same molecule?
**A.** 0.135 µM

**Q.** And the IC50 (primary AML specimens; primary AML specimen 07H003)?
**A.** 0.0945 µM

**Q.** What about the IC50 (primary AML specimens; primary AML specimen 07H131) of the same molecule?
**A.** 0.512 µM

**Q.** And the IC50 (primary AML specimens; primary AML specimen 07H144)?
**A.** 0.165 µM

**Q.** And the IC50 (primary AML specimens; primary AML specimen 07H155)?
**A.** 0.231 µM

**Q.** What about the IC50 (primary AML specimens; primary AML specimen 08H018) of the same molecule?
**A.** 0.618 µM

**Q.** And the IC50 (primary AML specimens; primary AML specimen 08H021)?
**A.** 0.0909 µM

**Q.** What about the IC50 (primary AML specimens; primary AML specimen 08H056) of the same molecule?
**A.** 0.0794 µM

**Q.** What about the IC50 (primary AML specimens; primary AML specimen 08H063) of the same molecule?
**A.** 0.146 µM

**Q.** What about the IC50 (primary AML specimens; primary AML specimen 08H085) of the same molecule?
**A.** 0.309 µM

**Q.** And the IC50 (primary AML specimens; primary AML specimen 08H108)?
**A.** 0.0708 µM

**Q.** What about the IC50 (primary AML specimens; primary AML specimen 08H118) of the same molecule?
**A.** 0.291 µM

**Q.** What about the IC50 (primary AML specimens; primary AML specimen 09H016) of the same molecule?
**A.** 0.244 µM

**Q.** And the IC50 (primary AML specimens; primary AML specimen 09H070)?
**A.** 0.123 µM

**Q.** What about the IC50 (primary AML specimens; primary AML specimen 10H014) of the same molecule?
**A.** 0.563 µM

**Q.** What about the IC50 (primary AML specimens; primary AML specimen 10H046) of the same molecule?
**A.** 0.306 µM

**Q.** What about the IC50 (primary AML specimens; primary AML specimen 10H107) of the same molecule?
**A.** 0.324 µM

**Q.** What about the IC50 (primary AML specimens; primary AML specimen 10H127) of the same molecule?
**A.** 0.0715 µM

**Q.** What about the IC50 (primary AML specimens; primary AML specimen 10H161) of the same molecule?
**A.** 0.0975 µM

**Q.** And the IC50 (primary AML specimens; primary AML specimen 10H174)?
**A.** 0.211 µM

**Q.** And the IC50 (primary AML specimens; primary AML specimen 11H008)?
**A.** 0.161 µM

**Q.** And the IC50 (primary AML specimens; primary AML specimen 11H019)?
**A.** 0.214 µM

**Q.** And the IC50 (primary AML specimens; primary AML specimen 11H170)?
**A.** 0.523 µM

**Q.** And the IC50 (primary AML specimens; primary AML specimen 11H217)?
**A.** 0.074 µM

**Q.** What about the IC50 (primary AML specimens; primary AML specimen 11H232) of the same molecule?
**A.** 0.299 µM

**Q.** What about the IC50 (primary AML specimens; primary AML specimen 12H033) of the same molecule?
**A.** 0.28 µM

**Q.** What about the IC50 (primary AML specimens; primary AML specimen 12H055) of the same molecule?
**A.** 0.183 µM

**Q.** What about the IC50 (primary AML specimens; primary AML specimen 12H148) of the same molecule?
**A.** 0.208 µM

**Q.** And the IC50 (primary AML specimens; primary AML specimen 13H053)?
**A.** 0.563 µM

**Q.** And the IC50 (primary AML specimens; primary AML specimen 15H045)?
**A.** 0.256 µM

**Q.** What about the IC50 (primary AML specimens; primary AML specimen 17H065) of the same molecule?
**A.** 2.5 µM

**Q.** And the IC50 (OCI-AML5 cells; OCI-AML-5, OCI-AML5 cells, read-out: IC50 in AML5)?
**A.** 0.047 µM

**Q.** And the inhibition at 1 µM (CDK9/CyclinT)?
**A.** 63%

**Q.** Which IC50 (OCI-AML5 cells; OCI-AML-5, 96 h, 4 days incubation, read-out: IC50 OCI-AML5) does the source give for `CN(CCOCCOCCN)c1ccc(CC(=O)Nc2ncc(SCc3cccnc3)s2)cc1` [UOM-005790] here?
**A.** 0.68 µM
